Like-named read-outs stand apart in the source and are kept apart here.
Columns and labels:
[1] = system: Dictyostelium; format: cell-based, Dictyostelium discoideum
[2] = system: L. pneumophila within Dictyostelium; format: cell-based, Legionella pneumophila; settings: within 6-8 days; 10 μM LY (FIG. 2C); MOI 1
[3] = system: Legionella-containing vacuoles in calnexin-GFP-labeled Dictyostelium; format: cell-based, Dictyostelium discoideum
[4] = system: Legionella-containing vacuoles in Dictyostelium; format: cell-based, Dictyostelium discoideum; settings: 20 μM LY; 1 h infection; p<10^−9
[5] = system: Dictyostelium
[6] = system: L. pneumophila
[7] = latrunculin B 1-50 μM, cytochalasin A 1-50 μM, cytochalasin D up to 50 μM, 1 h prior infection

Question: For `C=C1[C@@H](C)[C@H]2[C@H](Cc3ccccc3)NC(=O)[C@]23[C@H](OC(C)=O)/C=C/[C@@](C)(O)C(=O)[C@@H](C)C/C=C/[C@H]3[C@@H]1O` [cytochalasin D], which “inhibition of phagocytosis (uptake) of L. pneumophila” value (shortened to “inhibition of phagocytosis”) [1, 7] is on record?
Answer: Its value is “did not prevent uptake”.

Question: For `O=c1cc(N2CCOCC2)oc2c(-c3ccccc3)cccc12` [LY294002], which “change in phagocytosis of wild-type L. pneumophila” value ([1]; wild-type Dictyostelium treated with PI3K inhibitor (FIG. 2A: 5 μM wortmannin)) is on record?
Answer: The value was −33%.

Question: And the “factor more wild-type L. pneumophila released compared to wild-type Dictyostelium” value [2]?
Answer: The value was ~100.

Question: What about the “portion of spacious LCVs” value ([3]; 15 min post infection, 20 μM LY-treated wild-type Dictyostelium (untreated 25%)) of the same compound?
Answer: The value was “less than 5%”.

Question: And the “portion of spacious LCVs” value ([3]; within 2 h, 20 μM LY-treated wild-type Dictyostelium (untreated 40%))?
Answer: The value was 20%.

Question: What about the “factor more SidC localized to LCV membranes compared to untreated wild-type Dictyostelium” value [4] of the same compound?
Answer: Its value is ~1.5.

Question: What about the “viability of Dictyostelium (PFU)” value [5] of the same compound?
Answer: The value was “did not affect viability”.

Question: And the “viability of Dictyostelium Ax3 in MB medium” value [5]?
Answer: The value was “as viable as untreated”.

Question: What about the “viability of Dictyostelium at later time points (PFU on K. pneumoniae lawns)” value [5] of the same compound?
Answer: Its value is “reduced viability”.

Question: And the “viability of L. pneumophila (CFU)” value ([6]; wortmannin 0.1-10 μM, LY294002 5-25 μM, HL5 medium)?
Answer: Its value is “did not affect viability”.

Question: With `C=C1[C@@H](C)[C@H]2[C@H](Cc3ccccc3)NC(=O)[C@]23OC(=O)/C=C/C(=O)CCC[C@@H](C)C/C=C/[C@H]3[C@@H]1O` [cytochalasin A] as the compound, how does the Icm/Dot-dependent phagocytosis [1] read?
Answer: Its Icm/Dot-dependent phagocytosis is “blocked”.

Question: What about the “inhibition of phagocytosis” value [1, 7] of the same compound?
Answer: The value was “blocked phagocytosis in a dose-dependent manner”.

Question: `C/C1=C/C(=O)O[C@@H]2C[C@@H](CC[C@H](C)/C=C\CC1)O[C@@](O)([C@@H]1CSC(=O)N1)C2` [latrunculin B] was tested. Which Icm/Dot-dependent phagocytosis [1] did it give?
Answer: Its Icm/Dot-dependent phagocytosis is “blocked”.

Question: And the “inhibition of phagocytosis” value [1]?
Answer: Its value is “blocked phagocytosis in a dose-dependent manner”.

Question: What about the “phagocytosis (FIG. 1)” value [1] of the same compound?
Answer: The value was “blocked”.

Question: For `COC[C@H]1OC(=O)c2coc3c2[C@@]1(C)C1=C(C3=O)[C@@H]2CCC(=O)[C@@]2(C)C[C@H]1OC(C)=O` [wortmannin], which “change in phagocytosis of wild-type L. pneumophila” value [1] is on record?
Answer: Its value is −19%.

Question: And the “viability of Dictyostelium (PFU)” value [5]?
Answer: The value was “did not affect viability”.

Question: And the “viability of Dictyostelium Ax3 in MB medium” value [5]?
Answer: The value was “as viable as untreated”.

Question: What about the “viability of L. pneumophila (CFU)” value [6] of the same compound?
Answer: The value was “did not affect viability”.

Source: patent US7629130B2 (priority 2005, dated 2009)
